Patent publication US8071768B2, “Alkylquinoline and alkylquinazoline kinase modulators” (Janssen Pharmaceutica, N.V., priority 2005, dated 2011)

Target: T1, TrkB (Homo sapiens, UniProt Q16620)
T1 construct: purchased Upstate 14-507M
Assay: Trk B Fluorescence Polarization Kinase Assay
Assay type: biochemical
Conditions: uncertainty ±10%
Protocol: Trk B Fluorescence Polarization Kinase Assay (TrkB IC50 Data)
The compounds of the present invention are also specific inhibitors of TrkB. Selection of preferred compounds of Formula I for use as TrkB inhibitors was performed in the following manner. The TrkB assay utilized the fluorescein-labeled phosphopeptide and the anti-phosphotyrosine antibody included in the Panvera Phospho-Tyrosine Kinase Kit (Green) supplied by Invitrogen. When TrkB phosphorylated poly Glu4Tyr, the fluorescein-labeled phosphopeptide was displaced from the anti-phosphotyrosine antibody by the phosphorylated poly Glu4Tyr, thus decreasing the FP value. The TrkB kinase reaction was incubated at room temperature for 30 minutes under the following conditions: 50 nM TrkB (Upstate, catalog # 14-507M), 20 ug/mL poly Glu4Tyr, 150 uM ATP, 5 mM MgCl2, 1% compound in DMSO. The kinase reaction was stopped with the addition of EDTA. The fluorescein-labeled phosphopeptide and the anti-phosphotyrosine antibody were added and incubated for 30 minutes at room temperature. Data points were an average of triplicate samples. Inhibition and IC50 data analysis were done with GraphPad Prism using a non-linear regression fit with a multiparamater, sigmoidal dose-response (variable slope) equation.

T1 sequence (Q16620 32-822): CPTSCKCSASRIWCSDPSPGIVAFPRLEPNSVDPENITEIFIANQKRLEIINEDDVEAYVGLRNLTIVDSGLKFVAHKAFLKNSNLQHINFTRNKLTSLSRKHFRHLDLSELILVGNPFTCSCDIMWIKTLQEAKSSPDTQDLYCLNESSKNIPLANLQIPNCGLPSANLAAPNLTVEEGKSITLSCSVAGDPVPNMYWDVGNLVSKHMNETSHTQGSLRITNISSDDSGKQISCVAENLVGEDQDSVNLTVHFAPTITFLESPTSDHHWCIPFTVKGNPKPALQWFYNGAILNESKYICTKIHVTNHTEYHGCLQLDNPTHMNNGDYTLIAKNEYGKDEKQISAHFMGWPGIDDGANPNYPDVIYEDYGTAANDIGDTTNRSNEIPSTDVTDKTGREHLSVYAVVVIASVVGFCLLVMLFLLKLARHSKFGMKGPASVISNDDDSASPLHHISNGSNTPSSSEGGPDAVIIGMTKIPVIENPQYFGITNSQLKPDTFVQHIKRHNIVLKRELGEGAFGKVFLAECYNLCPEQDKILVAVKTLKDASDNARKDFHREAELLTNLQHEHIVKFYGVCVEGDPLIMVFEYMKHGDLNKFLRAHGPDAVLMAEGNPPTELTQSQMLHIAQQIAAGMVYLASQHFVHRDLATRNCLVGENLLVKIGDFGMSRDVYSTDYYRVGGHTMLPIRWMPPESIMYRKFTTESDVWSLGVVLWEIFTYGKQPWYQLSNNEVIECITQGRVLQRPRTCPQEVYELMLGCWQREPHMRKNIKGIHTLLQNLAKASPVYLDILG

IC50 | Structure (SMILES)
> 20 µM | O=C1CCCN1CCOc1ccc2c(C3CCN(C(=O)Nc4ccc(N5CCOCC5)cc4)CC3)ncnc2c1 [Compound 85, 4-{7-[2-(2-Oxo-pyrrolidin-1-yl)-ethoxy]-quinazolin-4-yl}-piperidine-1-carboxylic acid (4-morpholin-4-yl-phenyl)-amide]
> 20 µM | CC(=O)N1CCN(CCOc2ccc3c(C4CCN(C(=O)Nc5ccc(N6CCOCC6)cc5)CC4)ncnc3c2)CC1 [Compound 97, 4-{7-[2-(4-Acetyl-piperazin-1-yl)-ethoxy]-quinazolin-4-yl}-piperidine-1-carboxylic acid (4-morpholin-4-yl-phenyl)-amide]
0.5 µM | CC(C)Oc1ccc(NC(=O)N2CCC(c3ncnc4cc(OCCCNS(C)(=O)=O)ccc34)CC2)cc1 [Compound 65, 4-[7-(3-Methanesulfonylamino-propoxy)-quinazolin-4-yl]-piperidine-1-carboxylic acid (4-isopropoxy-phenyl)-amide]
0.5 µM | CC(C)Oc1ccc(NC(=O)N2CCC(c3ncnc4cc(Cl)ccc34)CC2)cc1 [Compound 29, 4-(7-Chloro-quinazolin-4-yl)-piperidine-1-carboxylic acid (4-isopropoxy-phenyl)-amide]
> 42 µM | O=C(Nc1ccc(N2CCOCC2)cc1)N1CCC(c2ncnc3cc(N4CCNCC4)ccc23)CC1 [Compound 140, 4-(7-piperazin-1-yl-quinazolin-4-yl)-piperidine-1-carboxylic acid (4-morpholin-4-yl-phenyl)-amide]
> 20 µM | CC(=O)N1CCN(CCCOc2ccc3c(C4CCN(C(=O)Nc5ccc(N6CCOCC6)cc5)CC4)ncnc3c2)CC1 [Compound 117, 4-{7-[3-(4-Acetyl-piperazin-1-yl)-propoxy]-quinazolin-4-yl}-piperidine-1-carboxylic acid (4-morpholin-4-yl-phenyl)-amide]
0.3 µM | CC(C)Oc1ccc(NC(=O)N2CCC(c3ncnc4ccc(OCCCN5CCCC5=O)cc34)CC2)cc1 [Compound 101, 4-{6-[3-(2-Oxo-pyrrolidin-1-yl)-propoxy]-quinazolin-4-yl}-piperidine-1-carboxylic acid (4-isopropoxy-phenyl)-amide]
27.9 µM | O=C(Nc1ccc(N2CCOCC2)cc1)N1CCC(c2ncnc3cc(OCCN4CCOCC4)ccc23)CC1 [Compound 96, 4-[7-(2-Morpholin-4-yl-ethoxy)-quinazolin-4-yl]-piperidine-1-carboxylic acid (4-morpholin-4-yl-phenyl)-amide]
6.2 µM | COc1cc2ncnc(C3CCN(C(=O)Nc4ccc(I)cc4)CC3)c2cc1OC [Compound 2, 4-(6,7-Dimethoxy-quinazolin-4-yl)-piperidine-1-carboxylic acid (4-iodo-phenyl)-amide]
13.3 µM | COc1cc2ncnc(C3CCN(C(=O)Nc4ccc5[nH]ccc5c4)CC3)c2cc1OC [Compound 23, 4-(6,7-Dimethoxy-quinazolin-4-yl)-piperidine-1-carboxylic acid (1H-indol-5-yl)-amide]
0.6 µM | COc1cc2ncnc(C3CCN(C(=O)Nc4ccc(C5CCCCC5)cc4)CC3)c2cc1OC [Compound 21, 4-(6,7-Dimethoxy-quinazolin-4-yl)-piperidine-1-carboxylic acid (4-cyclohexyl-phenyl)-amide]
40.6 µM | COc1cc2ncnc(C3CCN(C(=O)Nc4ccc(C5=CCN(C(=O)OC(C)(C)C)CC5)cc4)CC3)c2cc1OC [Compound 61, 4-(4-{[4-(6,7-Dimethoxy-quinazolin-4-yl)-piperidine-1-carbonyl]-amino}-phenyl)-3,6-dihydro-2H-pyridine-1-carboxylic acid tert-butyl ester]
> 20 µM | CN1CCN(CCCOc2ccc3c(C4CCN(C(=O)Nc5ccc(N6CCOCC6)c(F)c5)CC4)ncnc3c2)CC1 [Compound 81, 4-{7-[3-(4-Methyl-piperazin-1-yl)-propoxy]-quinazolin-4-yl}-piperidine-1-carboxylic acid (3-fluoro-4-morpholin-4-yl-phenyl)-amide]
15 µM | CC(=O)N1CCN(c2ccc3c(C4CCN(C(=O)Nc5ccc(N6CCOCC6)cc5)CC4)ncnc3c2)CC1 [Compound 141, 4-[7-(4-Acetyl-piperazin-1-yl)-quinazolin-4-yl]-piperidine-1-carboxylic acid (4-morpholin-4-yl-phenyl)-amide]
28.7 µM | COc1cc2ncnc(C3CCN(C(=O)NC4CCCCC4)CC3)c2cc1OC [Compound 42, 4-(6,7-Dimethoxy-quinazolin-4-yl)-piperidine-1-carboxylic acid cyclohexylamide]
6.2 µM | COc1cc2ncnc(C3CCN(C(=O)NC4CCC(C(C)(C)C)CC4)CC3)c2cc1OC (centres unmarked) [Compound 54, 4-(6,7-Dimethoxy-quinazolin-4-yl)-piperidine-1-carboxylic acid (4-tert-butyl-cyclohexyl)-amide]

IC50 | Structure (SMILES)
> 42 µM | O=C(Nc1ccc(N2CCOCC2)cc1)N1CCC(c2ncnc3cc(N4CCN(CCO)CC4)ccc23)CC1 [Compound 137, 4-{7-[4-(2-Hydroxy-ethyl)-piperazin-1-yl]-quinazolin-4-yl}-piperidine-1-carboxylic acid (4-morpholin-4-yl-phenyl)-amide]
1 µM | COc1cc2ncnc(C3CCN(CC(=O)Nc4ccc(OC(C)C)cc4)CC3)c2cc1OC [Compound 10, 2-[4-(6,7-Dimethoxy-quinazolin-4-yl)-piperidin-1-yl]-N-(4-isopropoxy-phenyl)-acetamide]
> 42 µM | CS(=O)(=O)NCCCOc1ccc2c(C3CCN(C(=O)Nc4ccc(N5CCOCC5)cc4)CC3)ncnc2c1 [Compound 66, 4-[7-(3-Methanesulfonylamino-propoxy)-quinazolin-4-yl]-piperidine-1-carboxylic acid (4-morpholin-4-yl-phenyl)-amide]
8.9 µM | CN1CCC(COc2ccc3c(C4CCN(C(=O)Nc5ccc(N6CCCC6)cc5)CC4)ncnc3c2)CC1 [Compound 109, 4-[7-(1-Methyl-piperidin-4-ylmethoxy)-quinazolin-4-yl]-piperidine-1-carboxylic acid (4-pyrrolidin-1-yl-phenyl)-amide]
0.4 µM | COc1ccc2c(C3CCN(C(=O)Nc4ccc(OC(C)C)cc4)CC3)ncnc2c1 [Compound 31, 4-(7-Methoxy-quinazolin-4-yl)-piperidine-1-carboxylic acid (4-isopropoxy-phenyl)-amide]
> 42 µM | COCCOc1ccc(NC(=O)N2CCC(c3ncnc4cc(OC)c(OC)cc34)CC2)cc1 [Compound 40, 4-(6,7-Dimethoxy-quinazolin-4-yl)-piperidine-1-carboxylic acid [4-(2-methoxy-ethoxy)-phenyl]-amide]
3.4 µM | O=C(Nc1ccc(N2CCCC2)nc1)N1CCC(c2ncnc3cc(OCCN4CCOCC4)ccc23)CC1 [Compound 95, 4-[7-(2-Morpholin-4-yl-ethoxy)-quinazolin-4-yl]-piperidine-1-carboxylic acid (6-pyrrolidin-1-yl-pyridin-3-yl)-amide]
> 42 µM | CN1CCC(COc2ccc3c(C4CCN(C(=O)Nc5ccc(N6CCOCC6)cc5)CC4)ncnc3c2)CC1 [Compound 94, 4-[7-(1-Methyl-piperidin-4-ylmethoxy)-quinazolin-4-yl]-piperidine-1-carboxylic acid (4-morpholin-4-yl-phenyl)-amide]
4 µM | COc1cc2ncnc(C3CCN(C(=O)Nc4ccc(OC(F)F)cc4)CC3)c2cc1OC [Compound 51, 4-(6,7-Dimethoxy-quinazolin-4-yl)-piperidine-1-carboxylic acid (4-difluoromethoxy-phenyl)-amide]
> 42 µM | O=C(Nc1ccc(N2CCOCC2)cc1)N1CCC(c2ncnc3cc(OCCN4CCC[C@H]4CO)ccc23)CC1 [Compound 153, (S)-4-{7-[2-(2-Hydroxymethyl-pyrrolidin-1-yl)-ethoxy]-quinazolin-4-yl}-piperidine-1-carboxylic acid (4-morpholin-4-yl-phenyl)-amide]
16.3 µM | CN1CCN(CCCOc2ccc3c(C4CCN(C(=S)Nc5ccc(N6CCOCC6)nc5)CC4)ncnc3c2)CC1 [Compound 106, 4-{7-[3-(4-Methyl-piperazin-1-yl)-propoxy]-quinazolin-4-yl}-piperidine-1-carbothioic acid (6-morpholin-4-yl-pyridin-3-yl)-amide]
1.9 µM | O=C(Nc1ccc(N2CCOCC2)nc1)N1CCC(c2ncnc3cc(OCCN4CCOC4=O)ccc23)CC1 [Compound 91, 4-{7-[2-(2-Oxo-oxazolidin-3-yl)-ethoxy]-quinazolin-4-yl}-piperidine-1-carboxylic acid (6-morpholin-4-yl-pyridin-3-yl)-amide]
14.6 µM | CS(=O)(=O)N1CCN(CCCOc2ccc3c(C4CCN(C(=O)Nc5ccc(N6CCOCC6)cc5)CC4)ncnc3c2)CC1 [Compound 118, 4-{7-[3-(4-Methanesulfonyl-piperazin-1-yl)-propoxy]-quinazolin-4-yl}-piperidine-1-carboxylic acid (4-morpholin-4-yl-phenyl)-amide]
> 21 µM | CN1CCN(CCOc2ccc3c(C4CCN(C(=O)Nc5ccc(N6CCOCC6)cc5)CC4)ncnc3c2)CC1 [Compound 156, 4-{7-[2-(4-Methyl-piperazin-1-yl)-ethoxy]-quinazolin-4-yl}-piperidine-1-carboxylic acid (4-morpholin-4-yl-phenyl)-amide]
> 20 µM | O=C(Nc1ccc(N2CCOCC2)cc1)N1CCC(c2ncnc3cc(OCCCN4CCCCC4)ccc23)CC1 [Compound 75]
22.3 µM | COc1cc2ncnc(C3CCN(C(=O)Nc4ccc(Cl)cc4)CC3)c2cc1OC [Compound 49, 4-(6,7-Dimethoxy-quinazolin-4-yl)-piperidine-1-carboxylic acid (4-chloro-phenyl)-amide]
